18 compounds from PubChem BioAssay (NCI) can be followed below.

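Compound exposure: 48 hours, 5 concentrations, 96-well plates. At the GI50, growth is halved. TGI: total growth inhibition.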 Where a SMILES comes first, the peptide text is derived from it. [ ]: non-standard residue; d: D form. The star is where a group is joined. NMeF = CN[CH](Cc1ccccc1)C(=O)O; NMeV = CN[CH](C(=O)O)C(C)C; Boc = CC(C)(C)OC(=O)*; OBn = c1ccc(CO*)cc1

As usually defined, the TGI is the concentration at which net growth stops. Higher therefore signals lower sensitivity of the cells. The GI50 is the concentration at which growth is held to half of that of the control.

Some test systems named below: SF-539 CNS; HL-60(TB) leukemia; SN12C renal; DMS 273 small cell lung; NCI-H23 lung; OVCAR-5 ovarian; KM20L2 colon; PC-3 prostate; MCF7 breast; MDA-MB-231 breast.
Common to all, as to assay: DTP human tumour cell line panel, 48 h

Regarding `CC1(C)CCc2cc3c(cc2O1)OC(C)(C)C1c2c(ccc4c2CCC(C)(C)O4)OC31` (stereo not given), the total growth inhibition concentration (TGI) with SF-539 CNS, in the assay on HL-60(TB) leukemia, with SN12C renal, in the assay on DMS 273 small cell lung, in the assay with NCI-H23 lung and in the assay on OVCAR-5 ovarian was above 100 µM in each case.
For the compound `CCCNC(=O)c1cc2ccccc2cc1C(=O)OC`, the total growth inhibition concentration (TGI) in the assay with SF-539 CNS, with KM20L2 colon, in the assay on HL-60(TB) leukemia, with SN12C renal, with DMS 273 small cell lung and in the assay with NCI-H23 lung was above 100 µM throughout. Moreover, the concentration for total growth inhibition (TGI) in the assay with OVCAR-5 ovarian was above 100 µM.
`CC1SC2=NC3=C(c4ccccc4C3=O)C(c3ccc(Br)cc3)N2C1=O` (stereo not given): the TGI was above 100 µM in the assay with KM20L2 colon; 62.8 µM with HL-60(TB) leukemia; above 100 µM in the assay on SN12C renal; above 100 µM in the assay with DMS 273 small cell lung; above 100 µM in the assay with NCI-H23 lung; above 100 µM in the assay on OVCAR-5 ovarian.
Regarding `COc1cc(C2[C@H]3C(=O)N(c4ccc(Cc5ccc(N6C(=O)[C@@H]7ON(c8ccccc8)C(c8cc(OC)c(OC)c(OC)c8)[C@@H]7C6=O)cc5)cc4)C(=O)[C@H]3ON2c2ccccc2)cc(OC)c1OC` (stereo not given in full), the concentration for total growth inhibition (TGI) in the assay with SF-539 CNS, with KM20L2 colon, in the assay with HL-60(TB) leukemia, in the assay with SN12C renal, in the assay on DMS 273 small cell lung and in the assay with NCI-H23 lung was above 100 µM throughout. For the same compound, the total growth inhibition concentration (TGI) in the assay on OVCAR-5 ovarian is above 100 µM.
For `CC(C)O/C=C1\C(=O)C2(SCCS2)[C@H]2CCCC[C@@H]12`, the TGI in the assay on SF-539 CNS is above 100 µM; in the assay with KM20L2 colon, above 100 µM; in the assay with HL-60(TB) leukemia it was 53.4 µM; with SN12C renal it was above 100 µM; with DMS 273 small cell lung, above 100 µM.
In the case of `O=C1Cc2ccccc2N1/N=C\c1ccc(O)cc1`, the TGI in the assay on SF-539 CNS, in the assay with KM20L2 colon, in the assay on SN12C renal, in the assay with DMS 273 small cell lung, in the assay on NCI-H23 lung and in the assay on OVCAR-5 ovarian was above 100 µM each time.
Take `CSc1nc2c(nc(N)n2C2OCC(O)C(O)C2O)c(=O)[nH]1` (stereo not given): the TGI with SF-539 CNS, in the assay with KM20L2 colon, with HL-60(TB) leukemia, in the assay with SN12C renal and with NCI-H23 lung was above 100 µM in each case.
As to `CNC1=C(C)C(=O)C(C)=C(C(C)(C)CC(=O)n2cc(F)c(=O)[nH]c2=O)C1=O`, the TGI in the assay on SF-539 CNS, with KM20L2 colon, in the assay with HL-60(TB) leukemia, in the assay with SN12C renal, in the assay with DMS 273 small cell lung and in the assay on NCI-H23 lung was above 100 µM throughout. Moreover, the TGI in the assay with OVCAR-5 ovarian is above 100 µM.
In the case of `Cn1c(=O)c(C(c2ccccc2)c2c(O)c3ccccc3n(C)c2=O)c(O)c2ccccc21`, the TGI with SF-539 CNS, with KM20L2 colon, in the assay on HL-60(TB) leukemia, in the assay on SN12C renal, with DMS 273 small cell lung and in the assay on NCI-H23 lung was above 100 µM each time. In the assay with OVCAR-5 ovarian, this compound displayed a TGI of 93.1 µM.
On to `NNC(=O)CC(=O)Nc1ccccc1F`, for which the TGI with SF-539 CNS, in the assay on KM20L2 colon, in the assay with HL-60(TB) leukemia, in the assay on SN12C renal, in the assay with DMS 273 small cell lung and with NCI-H23 lung was above 100 µM in each case. Besides, the concentration for total growth inhibition (TGI) in the assay with OVCAR-5 ovarian is above 100 µM.
For the compound `COc1ccc(CNc2nc3ccccc3nc2-c2cccs2)cc1OC`, the TGI in the assay on SF-539 CNS, with KM20L2 colon, with HL-60(TB) leukemia, in the assay on SN12C renal, in the assay on DMS 273 small cell lung and in the assay on NCI-H23 lung was above 100 µM throughout. In the assay on OVCAR-5 ovarian, this compound yielded a total growth inhibition concentration (TGI) above 100 µM.
Take `CCN(CC)C(=O)c1c(N2CCOCC2)cc(N(CC)CC)oc1=O`: the TGI with SF-539 CNS, with KM20L2 colon, with HL-60(TB) leukemia, in the assay on SN12C renal, in the assay with DMS 273 small cell lung and in the assay with NCI-H23 lung was above 100 µM each time.
With `Cn1c2ccccc2c2cc(-c3ccccc3)c3c(c21)C(=O)C=CC3=O`, the TGI with SF-539 CNS was found to be 58.3 µM; with HL-60(TB) leukemia, 42.3 µM; in the assay with SN12C renal, 47.2 µM; with PC-3 prostate, 34.8 µM; in the assay on DMS 273 small cell lung, 40.6 µM; with MCF7 breast it was 24.7 µM. Further, the TGI worked out at 47.4 µM in the assay on MDA-MB-231 breast, 42.6 µM in the assay on NCI-H23 lung and 35.2 µM in the assay on OVCAR-5 ovarian.
`OCCc1cnco1`: the concentration for total growth inhibition (TGI) in the assay on SF-539 CNS, in the assay with KM20L2 colon, in the assay on HL-60(TB) leukemia, in the assay with SN12C renal, in the assay with DMS 273 small cell lung and in the assay with NCI-H23 lung was above 100 µM in each case.
Turning to `COC1=NN2C(OC)(c3ccccc3)c3c(-c4ccccc4)sc(-c4ccccc4)c3C2(c2ccccc2)S1` (stereo not given), the TGI with SF-539 CNS, in the assay with HL-60(TB) leukemia, in the assay on SN12C renal, in the assay on DMS 273 small cell lung, in the assay with NCI-H23 lung and in the assay on OVCAR-5 ovarian was above 100 µM in each case.
As to `CC(C)C(NC(=O)OC(C)(C)C)C(=O)N(C)C(Cc1ccccc1)C(=O)N(C)C(C(=O)N(C)C(C(=O)OCc1ccccc1)C(C)C)C(C)C` (stereo not given) (Boc-V[NMeF][NMeV][NMeV]-OBn; configuration not given here), the total growth inhibition concentration (TGI) with SF-539 CNS, with KM20L2 colon, in the assay with HL-60(TB) leukemia, in the assay with SN12C renal, in the assay with DMS 273 small cell lung and with NCI-H23 lung was above 100 µM throughout.
Consider `Cc1cn(C2C=CC(=O)C(C)O2)c(=O)[nH]c1=O` (stereo not given), for which the concentration for total growth inhibition (TGI) is 32.8 µM in the assay on SF-539 CNS; 30.2 µM with KM20L2 colon; 38.1 µM with HL-60(TB) leukemia; 29.8 µM in the assay with SN12C renal; 33.7 µM in the assay on DMS 273 small cell lung; 37.1 µM in the assay on NCI-H23 lung.
With `O=C1CC(c2ccccc2)Cc2nc3ccc(Cl)cc3cc21` (stereo not given), the concentration for 50% growth inhibition (GI50) was 0.211 µM in the assay with SF-539 CNS; 0.143 µM in the assay on HL-60(TB) leukemia; 0.518 µM in the assay on SN12C renal; 0.293 µM with PC-3 prostate; 2.42 µM with MCF7 breast; 0.538 µM with MDA-MB-231 breast. Further, the GI50 with NCI-H23 lung was 0.562 µM; with OVCAR-5 ovarian, 0.791 µM. Moreover, the TGI in the assay on SF-539 CNS is 0.642 µM; in the assay with HL-60(TB) leukemia, 0.566 µM; in the assay with SN12C renal, above 84.9 µM; in the assay with PC-3 prostate it was above 100 µM; with MCF7 breast, above 100 µM; in the assay with MDA-MB-231 breast, above 100 µM. For the same compound, the total growth inhibition concentration (TGI) in the assay with NCI-H23 lung and in the assay with OVCAR-5 ovarian was above 100 µM each time.
